Read-outs that look alike come from different tables or passages of the source.
Experiments:
ABCA1 protein = experiment: Detection of upregulation of ABCA1 protein in THP-1 macrophage cells (ApoA-I binding, high content imaging); format: cell-based; settings: 24 hrs with compound, AlexaFluor 647 ApoA-I binding, read-out: ABCA1 protein increasing efficacy EC50
Protocol: The ability of compounds of the invention to increase the level of ABCA1 protein is determined in replicate cultures of THP-1 macrophage cells in 96-well microplates. Cells are plated at an initial density of 100,000 cells/well in 100 μl medium and differentiated to adherent macrophages with the addition of PMA (100 nM) for 68 hrs in 10% fetal bovine serum, 3 μl/L of b-mercaptoethanol, RPMI-1640 medium. Then, cells are incubated with RPMI-1640 medium containing 1% FCS, 25 μg/ml acetylated LDL, for 24 hours at 37°. Following incubation with acetylated LDL, cells are washed twice with 50 μl PBS and incubated with 100 μl of RPMI-1640 medium containing the compound of interest solubilized in DMSO for an additional 24 hrs. The final DMSO concentration in presence of cells is maintained at 0.5%. ApoA-I binding assay using High Content Image Analysis is initiated by replacing with fresh medium, RPMI without Phenol Red, 0.2% BSA containing AlexaFluor®647 labeled ApoA-I for 2 h/37° C./5% CO2. Then, cells are fixed with 4% Formaldehyde in PBS (15 min, RT). Following Nuclei are stained with Hoechst solution (3 μM PBS) and Cytoplasm with Cell Mask Blue (2 μg/ml PBS), 15 min, RT. Finally the stained cells are fixed with a second round of formaldehyde treatment. Fixed stained cells are washed and kept in PBS at 4° C. and can be read immediately until one month after preparation.
The Alexa Fluor 647-labeled Apolipoprotein A-I (20 nM) was prepared as follows: Human recombinant Apolipoprotein A-I (ApoA-I) was exchanged to a buffer of 0.02 M NaHCO3 at pH 8.2 on an NAP desalting column (GE Healthcare) and brought to a concentration to 40 μM (1.13 mg/ml) by adjustment with the same buffer. The ApoA-I was fluorescently labeled by incubation with Alexa Fluor carboxylic acid succimidyl ester. (Alexa Fluor 647, Invitrogen A-20006) at a 2:1 molar ratio (Alexa to ApoA-I) for 1 h under shaking at RT. The remaining unconjugated label was removed by buffer exchange to 0.02M NaHCO3 at pH 8.2.
Imaging and data collection were performed on an OPERA confocal microplate imaging reader using a 20× water immersion objective and UV360 or 405 laser to identify the cell nuclei and a 635 laser to identify the fluorescent ApoA-I. Eight fields of view are captured per well. Image capture and analysis was performed with the Acapella software. Background fluorescence detected in control wells without ApoA-I was subtracted.
Using XLfit3 program (ID Business Solutions Ltd. UK), the model 205 for Dose Response One Site is used to calculate the EC50 values. […] Preferably, the compounds of the present invention have EC50 values in a range of 0.1 μM to 3 μM.

human CB1 receptor = target: T1, human CB1 receptor (Homo sapiens, UniProt P21554); experiment: CB1 receptor affinity, [3H]-CP-55,940 displacement, HEK cell membranes; format: binding; settings: read-out: CB1 receptor affinity [% inhibition @ 10 μM]
T1 construct: expressed in transfected cells; host or cells: human embryonic kidney (HEK) cells, Semliki Forest Virus system, membrane preparations
Protocol: (§1) The affinity of the compounds of the invention for cannabinoid receptors was determined using membrane preparations of human embryonic kidney (HEK) cells in which the human CB1 receptor is transiently transfected using a Semliki Forest Virus system in conjunction with [3H]-CP-55,940 as radioligand. After incubation of freshly prepared cell membrane preparation with the [^3H]-ligand, with or without addition of compounds of the invention, separation of bound and free ligand was performed by filtration over glass fiber filters. Radioactivity on the filter was measured by scintillation counting.
(§2) The ability of the compounds to displace the radioligand [^3H]-CP-55,940 was measured at a concentration of 10 μM and values provided as [% inhibition @ 10 μM] both for the CB 1 and CB2 receptor assay, The lower % inhibition is, the lower the likelihood of side effects based on CB1 or CB2 receptor inhibition is.

human CB2 receptor = target: T2, human CB2 receptor (Homo sapiens, UniProt P34972); experiment: CB2 receptor affinity, [3H]-CP-55,940 displacement, HEK cell membranes; format: binding; settings: 10 μM compound, radioligand [3H]-CP-55,940
T2 construct: expressed in transfected cells; host or cells: human embryonic kidney (HEK) cells, Semliki Forest Virus system, membrane preparations
Protocol: as §1, with “cannabinoid CB2” for “cannabinoid”, “CB2” for “CB1”, “[^3H]-CP-55,940” for “[3H]-CP-55,940”
as §2

[1] = 10 μM compound, radioligand [3H]-CP-55,940

T2 sequence (P34972 whole entry): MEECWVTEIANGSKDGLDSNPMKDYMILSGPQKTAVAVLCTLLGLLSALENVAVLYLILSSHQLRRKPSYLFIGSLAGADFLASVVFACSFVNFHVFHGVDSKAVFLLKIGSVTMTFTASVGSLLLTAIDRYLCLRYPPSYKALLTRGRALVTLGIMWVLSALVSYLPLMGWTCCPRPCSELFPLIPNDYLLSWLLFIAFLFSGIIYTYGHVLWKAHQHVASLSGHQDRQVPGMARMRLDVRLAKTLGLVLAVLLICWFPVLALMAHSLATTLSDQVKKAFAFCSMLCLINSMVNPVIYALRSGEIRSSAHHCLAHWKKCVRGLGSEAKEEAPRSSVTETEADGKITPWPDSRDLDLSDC
T1 sequence (P21554 whole entry): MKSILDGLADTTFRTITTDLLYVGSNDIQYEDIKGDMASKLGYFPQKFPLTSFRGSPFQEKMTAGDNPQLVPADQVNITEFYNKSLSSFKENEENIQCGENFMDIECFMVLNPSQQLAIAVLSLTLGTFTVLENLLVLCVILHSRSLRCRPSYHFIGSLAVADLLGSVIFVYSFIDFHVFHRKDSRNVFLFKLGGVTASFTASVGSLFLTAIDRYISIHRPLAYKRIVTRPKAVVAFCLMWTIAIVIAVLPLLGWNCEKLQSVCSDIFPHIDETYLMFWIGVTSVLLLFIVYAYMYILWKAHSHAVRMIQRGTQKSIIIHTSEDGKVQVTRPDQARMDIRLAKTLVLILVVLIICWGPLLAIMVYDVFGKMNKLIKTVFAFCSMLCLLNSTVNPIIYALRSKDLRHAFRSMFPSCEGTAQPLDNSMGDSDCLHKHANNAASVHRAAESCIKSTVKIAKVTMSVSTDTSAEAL

Row | SMILES | EC50 (ABCA1 protein) | inhibition at 10 µM (human CB1 receptor; [1]) | inhibition at 10 µM (human CB2 receptor) | inhibition at 10 µM (human CB1 receptor)
1 | COc1cc(CNC(=O)c2cc(-c3ccc(Cl)cc3)c(OCC(F)(F)F)nn2)on1 [Example 23, 5-(4-chlorophenyl)-N-((3-methoxyisoxazol-5-yl)methyl)-6-(2,2,2-trifluoroethoxy)pyridazine-3-carboxamide] | 930 nM | 18% | 7% | –
2 | O=C(NCc1nc(C(F)(F)F)no1)c1cnc(O[C@@H]2CCOC2)c(-c2ccc(Cl)cc2)c1 [Example 103, (R)-5-(4-chlorophenyl)-6-(tetrahydrofuran-3-yloxy)-N-((3-(trifluoromethyl)-1,2,4-oxadiazol-5-yl)methyl)nicotinamide] | – | 47% | 24% | –
3 | CC(C)c1cc(CNC(=O)c2cc(-c3ccc(Cl)cc3)c(OCC(F)(F)F)nn2)on1 [Example 43, 5-(4-chloro-phenyl)-6-(2,2,2-trifluoro-ethoxy)-pyridazine-3-carboxylic acid (3-isopropyl-isoxazol-5-ylmethyl)-amide] | – | 37% | 14% | –
4 | O=C(NCc1noc(C2CC2)n1)c1cc(-c2ccc(Cl)cc2)c(OCC(F)(F)F)nn1 [Example 41, 5-(4-chloro-phenyl)-6-(2,2,2-trifluoro-ethoxy)-pyridazine-3-carboxylic acid (5-cyclopropyl-[1,2,4]oxadiazol-3-ylmethyl)-amide] | – | 23% | 19% | –
5 | Cc1cc(CNC(=O)c2cc(-c3ccc(Cl)cc3)c(OCC(F)(F)F)cn2)no1 [Example 19, 4-(4-chlorophenyl)-N-((5-methylisoxazol-3-yl)methyl)-5-(2,2,2-trifluoro-ethoxy)picolinamide] | – | 30% | 43% | –
6 | COc1cc(CNC(=O)c2cc(-c3ccc(C)c(Cl)c3)c(OCC(F)(F)F)cn2)on1 [Example 73, 4-(3-chloro-4-methylphenyl)-N-((3-methoxyisoxazol-5-yl)methyl)-5-(2,2,2-trifluoroethoxy)picolinamide] | – | – | 45% | 22%
7 | O=C(NCc1nc(C(F)(F)F)no1)c1cnc(OC2CCC2)c(-c2ccc(Cl)cc2)c1 [Example 92, 5-(4-chlorophenyl)-6-cyclobutoxy-N-((3-(trifluoromethyl)-1,2,4-oxadiazol-5-yl)methyl)nicotinamide] | – | 43% | 9% | –
8 | O=C(NCc1cc(C(F)(F)F)no1)c1cnc(OCC(F)(F)F)c(-c2ccc(Cl)cc2)c1 [Example 59, 5-(4-chloro-phenyl)-6-(2,2,2-trifluoro-ethoxy)-N-(3-trifluoromethyl-isoxazol-5-ylmethyl)-nicotinamide] | – | – | -2% | 49%
9 | C[C@H](Oc1ncc(C(=O)NCc2nc(C(F)(F)F)no2)nc1-c1ccc(Cl)cc1)C(F)(F)F [Example 36, (S)-6-(4-chlorophenyl)-N-((3-(trifluoromethyl)-1,2,4-oxadiazol-5-yl)methyl)-5-(1,1,1-trifluoropropan-2-yloxy)pyrazine-2-carboxamide] | – | 36% | 14% | –
10 | COCCOc1ncc(C(=O)NCc2nc(C(F)(F)F)no2)cc1-c1ccc(F)c(F)c1 [Example 96, 5-(3,4-difluorophenyl)-6-(2-methoxyethoxy)-N-((3-(trifluoromethyl)-1,2,4-oxadiazol-5-yl)methyl)nicotinamide] | – | 45% | 8% | –
11 | O=C(NCc1nc(C(F)(F)F)no1)c1cnc(OCCO)c(-c2ccc(Cl)cc2)c1 [Example 102, 5-(4-chlorophenyl)-6-(2-hydroxyethoxy)-N-((3-(trifluoromethyl)-1,2,4-oxadiazol-5-yl)methyl)nicotinamide] | – | 26% | -4% | –
12 | O=C(NCc1nc(C2CC2)no1)c1ncc(OCC2CC2)c(-c2ccc(Cl)cc2)n1 [Example 17, 4-(4-chloro-phenyl)-5-cyclopropylmethoxy-pyrimidine-2-carboxylic acid (3-cyclopropyl-[1,2,4]oxadiazol-5-ylmethyl)-amide] | – | 48% | 45% | –
13 | O=C(NCc1nc(C(F)(F)F)no1)c1cnc(OC[C@H]2CCOC2)c(-c2ccc(Cl)cc2)c1 (stereo in doubt) [Example 104] | – | 39% | 9% | –
14 | C[C@H](Oc1cnc(C(=O)NCc2cc(C(F)(F)F)no2)nc1-c1ccc(Cl)cc1)C(F)(F)F [Example 68, (S)-4-(4-chlorophenyl)-N-((3-(trifluoromethyl)isoxazol-5-yl)methyl)-5-(1,1,1-trifluoropropan-2-yloxy)pyrimidine-2-carboxamide] | – | 45% | 3% | –
15 | O=C(NCc1cc(C(F)(F)F)on1)c1cnc(OCC(F)(F)F)c(-c2ccc(Cl)cc2)c1 [Example 50, 5-(4-chloro-phenyl)-6-(2,2,2-trifluoro-ethoxy)-N-(5-trifluoromethyl-isoxazol-3-ylmethyl)-nicotinamide] | – | 38% | -5% | –
16 | CCc1nc(CNC(=O)c2cnc(OCC3CC3)c(-c3ccc(Cl)cc3)c2)cs1 [Example 10, 5-(4-chloro-phenyl)-6-cyclopropylmethoxy-N-(2-ethyl-thiazol-4-ylmethyl)-nicotinamide] | – | 28% | 28% | –
17 | O=C(NCc1nc(C(F)(F)F)no1)c1cnc(OCC(F)(F)F)c(-c2ccc(Cl)c(F)c2)c1 [Example 82, 5-(4-chloro-3-fluorophenyl)-6-(2,2,2-trifluoroethoxy)-N-((3-(trifluoromethyl)-1,2,4-oxadiazol-5-yl)methyl)nicotinamide] | – | 30% | 27% | –
18 | O=C(NCc1nc(C(F)(F)F)no1)c1cc(-c2ccc(Cl)cc2)c(OCC2CC2)nn1 [Example 20, 5-(4-chloro-phenyl)-6-cyclopropylmethoxy-pyridazine-3-carboxylic acid (3-trifluoromethyl-[1,2,4]oxadiazol-5-ylmethyl)-amide] | – | 33% | 34% | –
19 | CC(C)c1noc(CNC(=O)c2cc(-c3ccc(Cl)cc3)c(OCC(F)(F)F)cn2)n1 [Example 40, 4-(4-chlorophenyl)-N-((3-isopropyl-1,2,4-oxadiazol-5-yl)methyl)-5-(2,2,2-trifluoroethoxy)picolinamide] | – | 29% | 19% | –
20 | CCc1ccc(-c2cc(C(=O)NCc3nc(C(F)(F)F)no3)cnc2OCC(F)(F)F)cc1 [Example 83, 5-(4-ethylphenyl)-6-(2,2,2-trifluoroethoxy)-N-((3-(trifluoromethyl)-1,2,4-oxadiazol-5-yl)methyl)nicotinamide] | – | 44% | -2% | –
21 | CC(C)c1cc(CNC(=O)c2cnc(OCC3CC3)c(-c3ccc(Cl)cc3)c2)no1 [Example 32, 5-(4-chlorophenyl)-6-(cyclopropylmethoxy)-N-((5-isopropylisoxazol-3-yl)methyl)nicotinamide] | – | 47% | 26% | –

— US9090599B2, “Heteroarylmethyl amides” (Hoffman-La Roche Inc., priority 2010, dated 2015)
